The values that follow come from ChEMBL document CHEMBL1201862, “PubChem BioAssay data set” (2004).

In assay [1] the target is T1, Corticotropin-releasing factor receptor 2/Corticotropin-releasing factor-binding protein (Homo sapiens, UniProt P24387+Q13324).
T1 sequence (Q13324 whole entry): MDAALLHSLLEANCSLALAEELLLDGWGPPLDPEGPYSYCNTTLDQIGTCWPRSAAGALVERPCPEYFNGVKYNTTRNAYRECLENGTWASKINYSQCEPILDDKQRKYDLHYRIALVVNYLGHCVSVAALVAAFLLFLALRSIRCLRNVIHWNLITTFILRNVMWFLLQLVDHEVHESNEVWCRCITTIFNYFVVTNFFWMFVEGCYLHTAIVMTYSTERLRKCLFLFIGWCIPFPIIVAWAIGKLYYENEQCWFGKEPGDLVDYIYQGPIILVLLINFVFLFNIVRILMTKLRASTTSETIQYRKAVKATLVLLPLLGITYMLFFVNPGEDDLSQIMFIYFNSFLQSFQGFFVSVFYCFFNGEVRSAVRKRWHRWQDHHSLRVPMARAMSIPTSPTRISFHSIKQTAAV
T1 sequence (P24387 whole entry): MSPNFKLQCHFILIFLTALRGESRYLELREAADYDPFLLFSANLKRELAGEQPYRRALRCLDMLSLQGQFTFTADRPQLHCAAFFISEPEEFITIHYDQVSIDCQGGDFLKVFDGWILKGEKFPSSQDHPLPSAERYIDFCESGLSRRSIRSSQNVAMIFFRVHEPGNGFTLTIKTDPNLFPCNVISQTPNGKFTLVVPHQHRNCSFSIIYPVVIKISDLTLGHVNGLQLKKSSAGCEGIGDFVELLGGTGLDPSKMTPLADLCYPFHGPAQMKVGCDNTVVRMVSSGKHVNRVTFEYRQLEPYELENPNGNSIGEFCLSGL
Briefly: Dose Response confirmation of uHTS hits for small molecule antagonists of the CRF-binding protein and CRF-R2 receptor complex. Type of assay: functional. The note with it: read-out: IC50_Mean.

For assay [2], the target named is T1, Corticotropin-releasing factor receptor 2/Corticotropin-releasing factor-binding protein. Briefly: activators of CRF receptor 2 with binding protein – uHTS hits, confirmation (AID 602473). The format is functional. The note with it: read-out: EC50_Mean.
The nature of assay [3]: blockers of CRF-binding protein–CRF-R2 complex – cell-based, uHTS hits, 384-well, dose response (AID 651639). Type of assay: functional, Homo sapiens. The settings on record: read-out: IC50_Mean.
Assay [4] is described as follows: viability of PTEN-deleted HCT116 cells – cell-based, HCT116 PTEN knockout, dose response (AID 1047).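 Further: HCT116 colon tumor cells with PTEN knocked out; cells exposed to compound for 60 hours before readout; potency for loss of cell viability measured by luminescence.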 Type of assay: functional.
A short description of assay [5]: viability of HCT116 lacking mutant beta-catenin – cell-based, human colon tumor, dose response (AID 1045).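 Further: HCT116 colon tumor cells with beta catenin knocked out; cells exposed to compound for 60 hours.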 The format is functional.
The nature of assay [6]: Luminescence Cell-Based Dose Retest to Confirm Inhibitors of Cancer Stem Cells. [Related pubchem assays (depositor defined):AID2717, AID2721]. The settings on record: Homo sapiens. The format is functional.
Assay [7] in a line: A Cell Based Secondary Assay To Explore Cytotoxicity of Compounds that Sensitize Mycobacterium Tuberculosis to Beta-Lactam Antibiotics. Type of assay: functional.
For assay [8], the target named is T2, Sentrin-specific protease 7 (Homo sapiens, UniProt Q9BQF6).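 Further: Luminescence-based dose-response confirmation of ultra-high-throughput screening hits, measuring inhibition of SENP7.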
T2 sequence (Q9BQF6 whole entry): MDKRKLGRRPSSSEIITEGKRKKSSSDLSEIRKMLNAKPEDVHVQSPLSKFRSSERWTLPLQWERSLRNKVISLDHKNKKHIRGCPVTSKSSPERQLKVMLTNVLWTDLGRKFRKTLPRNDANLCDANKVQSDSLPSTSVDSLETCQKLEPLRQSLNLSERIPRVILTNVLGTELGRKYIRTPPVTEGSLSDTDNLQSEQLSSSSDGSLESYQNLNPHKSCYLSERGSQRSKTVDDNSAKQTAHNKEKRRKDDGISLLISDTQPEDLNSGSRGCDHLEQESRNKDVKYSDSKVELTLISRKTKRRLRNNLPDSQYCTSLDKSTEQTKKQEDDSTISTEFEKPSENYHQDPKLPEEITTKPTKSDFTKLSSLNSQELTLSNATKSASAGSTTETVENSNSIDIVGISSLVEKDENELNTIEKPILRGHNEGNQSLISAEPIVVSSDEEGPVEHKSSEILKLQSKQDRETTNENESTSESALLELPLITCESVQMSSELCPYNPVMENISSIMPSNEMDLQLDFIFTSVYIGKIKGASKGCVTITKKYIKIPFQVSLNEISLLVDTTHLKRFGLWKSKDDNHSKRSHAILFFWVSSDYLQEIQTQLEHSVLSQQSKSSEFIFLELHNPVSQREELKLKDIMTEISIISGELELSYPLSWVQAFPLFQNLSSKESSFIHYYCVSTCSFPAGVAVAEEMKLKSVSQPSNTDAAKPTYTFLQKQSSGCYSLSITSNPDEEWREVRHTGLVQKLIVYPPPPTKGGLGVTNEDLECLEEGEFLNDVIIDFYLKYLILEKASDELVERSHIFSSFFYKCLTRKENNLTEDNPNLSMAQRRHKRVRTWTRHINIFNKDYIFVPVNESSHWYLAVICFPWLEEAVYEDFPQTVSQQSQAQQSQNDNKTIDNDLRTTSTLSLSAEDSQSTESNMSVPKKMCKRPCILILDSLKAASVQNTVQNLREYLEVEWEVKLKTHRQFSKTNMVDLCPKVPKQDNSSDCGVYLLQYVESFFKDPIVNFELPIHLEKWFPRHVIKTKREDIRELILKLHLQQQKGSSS
Type of assay: functional.

Assay [9] has as its target T3, Sentrin-specific protease 6 (Homo sapiens, UniProt Q9GZR1).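 Further: Luminescence-based dose-response confirmatory assay of SENP6 inhibition, following up an ultra-high-throughput screen.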
T3 sequence (Q9GZR1 whole entry): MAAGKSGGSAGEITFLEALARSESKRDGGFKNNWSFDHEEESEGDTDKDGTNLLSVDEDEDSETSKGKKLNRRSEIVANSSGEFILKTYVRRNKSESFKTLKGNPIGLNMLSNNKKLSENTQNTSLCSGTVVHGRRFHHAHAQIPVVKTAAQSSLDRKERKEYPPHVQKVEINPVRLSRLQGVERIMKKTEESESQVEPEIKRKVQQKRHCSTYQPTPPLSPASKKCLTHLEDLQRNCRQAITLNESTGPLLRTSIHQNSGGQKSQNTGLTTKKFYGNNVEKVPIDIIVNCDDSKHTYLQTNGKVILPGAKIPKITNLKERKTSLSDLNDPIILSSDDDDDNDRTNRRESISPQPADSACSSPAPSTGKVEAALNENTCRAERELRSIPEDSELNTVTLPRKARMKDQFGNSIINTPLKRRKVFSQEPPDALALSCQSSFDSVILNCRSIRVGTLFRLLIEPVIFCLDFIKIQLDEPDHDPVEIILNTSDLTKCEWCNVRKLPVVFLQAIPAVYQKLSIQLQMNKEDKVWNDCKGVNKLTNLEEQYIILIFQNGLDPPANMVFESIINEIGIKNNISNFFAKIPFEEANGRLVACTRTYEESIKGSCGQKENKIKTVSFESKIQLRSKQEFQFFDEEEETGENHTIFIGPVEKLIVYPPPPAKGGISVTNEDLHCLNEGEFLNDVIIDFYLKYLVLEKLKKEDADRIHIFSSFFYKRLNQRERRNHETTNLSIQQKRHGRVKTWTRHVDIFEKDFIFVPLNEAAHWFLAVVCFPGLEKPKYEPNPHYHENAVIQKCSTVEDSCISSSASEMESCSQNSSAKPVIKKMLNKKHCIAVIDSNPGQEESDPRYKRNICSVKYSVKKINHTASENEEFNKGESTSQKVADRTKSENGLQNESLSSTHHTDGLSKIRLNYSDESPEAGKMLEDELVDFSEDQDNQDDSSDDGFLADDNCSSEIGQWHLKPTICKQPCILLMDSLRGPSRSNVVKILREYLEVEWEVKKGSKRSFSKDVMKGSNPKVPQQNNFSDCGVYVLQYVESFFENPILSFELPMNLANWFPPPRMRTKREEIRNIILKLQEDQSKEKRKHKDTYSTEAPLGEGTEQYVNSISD
Type of assay: functional.

The target of another assay is T4, Caspase-3 (Homo sapiens, UniProt P42574).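 Further: Dose-response selectivity test against caspase-3 for candidate inhibitors of sentrin-specific proteases (SENPs).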
T4 sequence (P42574 whole entry): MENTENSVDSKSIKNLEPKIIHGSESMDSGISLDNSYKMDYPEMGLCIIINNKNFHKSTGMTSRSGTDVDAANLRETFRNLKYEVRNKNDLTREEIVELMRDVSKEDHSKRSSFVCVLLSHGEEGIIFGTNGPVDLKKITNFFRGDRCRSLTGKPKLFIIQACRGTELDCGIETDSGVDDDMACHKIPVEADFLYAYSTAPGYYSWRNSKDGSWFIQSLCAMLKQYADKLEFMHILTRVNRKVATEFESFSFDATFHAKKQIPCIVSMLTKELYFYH
Type of assay: functional.

Assay [10] concerns the target T5, Sentrin-specific protease 8 (Homo sapiens, UniProt Q96LD8).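 Further: luminescence read-out of SENP8 inhibition, dose-response confirmation following an ultra-high-throughput screen.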
T5 sequence (Q96LD8 whole entry): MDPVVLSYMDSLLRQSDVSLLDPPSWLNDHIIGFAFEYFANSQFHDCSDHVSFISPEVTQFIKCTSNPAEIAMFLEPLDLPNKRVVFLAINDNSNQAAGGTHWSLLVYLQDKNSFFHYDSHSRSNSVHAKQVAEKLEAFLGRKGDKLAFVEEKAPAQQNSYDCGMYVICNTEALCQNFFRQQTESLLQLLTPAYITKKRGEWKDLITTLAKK
Type of assay: functional.

Assay [11] in a line: Trypanosoma cruzi growth suppression in host cells – NIH3T3 host cells, beta-gal luminescence, confirmation (AID 2044).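 Further: intracellular parasites grown in NIH/3T3 mouse fibroblasts as host cells; luminescent beta-galactosidase reporter signal from transgenic T. cruzi replicating inside host cells; inhibitors lower the luminescence signal.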 Type of assay: functional, cell-based.
The nature of assay [12]: NIH-3T3 fibroblast cytotoxicity, dose response, cytotoxicity control, cell-based, fluorescence, Alamar Blue, secondary assay (AID 2327).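 Further: NIH-3T3 mouse fibroblasts cultured with fluconazole at 8 µg/mL.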 Type of assay: functional.
A short description of assay [13]: NIH3T3 cell viability loss – ATP luminescence, mouse fibroblasts, counter-screen, dose response (AID 2010).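 Further: cells exposed to compound for about 90 hours before reading.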 The format is functional, cell-based.
Assay [14] can be described thus: fluconazole-exposed Candida albicans growth modulators – fluorescence, retest, confirmation (AID 2467). Type of assay: functional, cell-based.
Assay [15] in a line: alpha-synuclein stem-loop luciferase translation blockers – H4 neuroglioma cells, luminescence, confirmation (AID 1988). Type of assay: functional, cell-based.
A short description of assay [16]: Luminescence Cell-Based Dose Response HTS to Identify Inhibitors of 5'UTR Stem-Loop Driven Prion Protein mRNA Translation in H4 Neuroglioblastoma Cells. [Related pubchem assays: 1827 (Project Summary), 1813 (Primary HTS)]. Type of assay: functional.
The nature of assay [17]: luciferase reporter signal suppression in cells – H4 neuroglioma cells, luminescence, dose response (AID 1990). Type of assay: functional, cell-based.

The structures appear in SMILES notation. Calls of active or inactive are those of the source.
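Wherever AC50 is given: cells exposed to compound for roughly 70 hours or longer before luminescence read.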

As to `COc1ccc([N+](=O)[O-])cc1NC(=O)c1ccccc1SC`, the results for the IC50 in assay [1] and in assay [3] were 23 µM (active) and 1.79 µM (active), respectively. The EC50 in [2] was > 53 µM (inactive).

`CCN1CCN(c2cc(-c3ccccc3)nc3cc(-c4cccc(F)c4)nn23)CC1`: the EC50 in assay [4] is 13.8 µM (active); in assay [5], 11.1 µM (active). In assay [6], the AC50 is 5.42 µM (active).

Regarding `COc1ccc2oc(=N)c(C(=O)Nc3ccccc3)cc2c1`, in assay [7], the CC50 is > 40 µM (active).

As for `Cc1ccc(-c2nc3sc4c(c3c(=O)n2N)CCCC4)cc1`, the IC50 is 5.25 µM (active) in assay [8], 18.2 µM (active) in assay [9], 12.7 µM (active) on Caspase-3 and > 100 µM (inactive) in [10].

Regarding `CN(C)C1=NP(N(C)C)(N(C)C)=NC(c2ccccc2)=N1`, the IC50 in assay [1] was < 0.368 µM (active); in assay [3], > 20 µM (inactive). For the same compound, the EC50 in assay [2] is > 53 µM (inactive).

As to `Nc1ccccc1Oc1c(F)c(F)c(Oc2ccccc2N)c(F)c1F`, the IC50 is 4.08 µM (active) in assay [1] and > 20 µM (inactive) in assay [3]. In assay [2], the EC50 was > 53 µM (inactive).

In the case of `O=C(Nc1cccc(S(=O)(=O)N2CCCCC2)c1)Nc1ccc(Cl)cc1Cl`, the EC50 is 8.66 µM (active) in [4] and 8.76 µM (active) in assay [5].

In the case of `O=C(CSc1ncnc2ccccc12)c1cccs1`, the IC50 in assay [8] was 4.7 µM (active); in assay [9], 23.9 µM (active); at Caspase-3, 37.4 µM (active); in [10] it was 17.5 µM (active).

Regarding `N#Cc1cccc(NC(=O)Nc2cccs2)c1`, the IC50 in [1] was < 0.368 µM (active); in assay [3], > 20 µM (inactive). Moreover, the EC50 in assay [2] is > 53 µM (inactive).

With `COCCn1c(=O)[nH]c(=O)c2c1nc(-c1ccc(-c3ccc(Cl)cc3[N+](=O)[O-])o1)n2Cc1ccccc1`, the EC50 in [4] is 17.3 µM (active); in assay [5], 19.4 µM (active).

As for `COc1cc(NC(=O)c2cccc(Br)c2)nc(OC)n1`, the IC50 in assay [8] was 8.86 µM (active); in assay [9], 31 µM (active); at Caspase-3, 20.5 µM (active); in assay [10], 35.7 µM (active).

As to `CCCOc1ccc(C(=O)CCN2CCCCC2)cc1`, the CC50 in assay [7] was > 40 µM (active).

For `CCOC(=O)/C=C/c1ccc2oc3ccccc3c(=O)c2c1`, the IC50 in [8] was 3.46 µM (active); in assay [9] it was 16.6 µM (active); at Caspase-3 it was 12.2 µM (active); in assay [10], 42.7 µM (active).

On to `Cc1cccc(C(=O)O/N=C/c2c(N3CCOCC3)n(C)c3ccccc23)c1`, for which the EC50 is 3.22 µM (active) in [11]; > 150 µM (inactive) in assay [12]; 8.96 µM (active) in assay [13]; 0.729 µM (active) in [14]; 2.47 µM (active) in assay [4]; 2.35 µM (active) in assay [5]. The figures for the EC50 in assay [15], in assay [16] and in assay [17] were 9.98 µM (active), 10.8 µM (active) and > 120 µM (not active), respectively.
